Reference: ChEMBL document CHEMBL3045699, “Three-dimensional quantitative structureactivity relationship approach for the prediction of the antimycobacterial activity of 4-oxo-dihydroquinoline-3-carboxylic acid derivatives” (2008)
In brackets after ≈: the same amount, converted by molar mass.

Test system: Mycobacterium tuberculosis
Assay: Antimycobacterial activity against Mycobacterium tuberculosis
Assay type: functional
Settings: for MIC: Mycobacterium tuberculosis

With CNCC1CCN(c2ccc3c(=O)c(C(=O)O)cn(C(C)C)c3c2)C1 (configuration not stated) the “log(1/C)” value was 1.655 and the MIC was 22.1 µM (≈ 7.6 µg/mL).

For CC(C)CN1CCN(c2ccc3c(=O)c(C(=O)O)cn(-c4c(F)cccc4F)c3c2)CC1, the “log(1/C)” value was 2.06 and the MIC was 8.71 µM (≈ 3.84 µg/mL).

With CCCn1cc(C(=O)O)c(=O)c2ccc(N3CCC(N)C3)cc21 (configuration not stated) the “log(1/C)” value was 1.902 and the MIC was 12.5 µM (≈ 3.95 µg/mL).

In the case of CC1CN(c2ccc3c(=O)c(C(=O)O)cn(C4CCC4)c3c2)CCN1 (configuration not stated), the “log(1/C)” value is reported as 2.556 and the MIC is reported as 2.78 µM (≈ 0.95 µg/mL).

In the case of CC(C)N1CCN(c2ccc3c(=O)c(C(=O)O)cn(-c4c(F)cccc4F)c3c2)CC1, the “log(1/C)” value is reported as 2.649 and the MIC is reported as 2.25 µM (≈ 0.96 µg/mL).

For O=C(O)c1cn(C2CC2)c2cc(N3CCNCC3)ccc2c1=O, the “log(1/C)” value was 3.122 and the MIC was 0.754 µM (≈ 0.236 µg/mL).

For CC1(CN)CCN(c2ccc3c(=O)c(C(=O)O)cn(C4CC4)c3c2)C1 (configuration not stated), the “log(1/C)” value was 3.777 and the MIC was 0.167 µM (≈ 0.057 µg/mL).

With CCN1CCN(c2ccc3c(=O)c(C(=O)O)cn(C4CC4)c3c2)CC1 the “log(1/C)” value was 3.442 and the MIC was 0.362 µM (≈ 0.124 µg/mL).

With CCN1CCN(c2ccc3c(=O)c(C(=O)O)cn(C4CCC4)c3c2)CC1 the “log(1/C)” value was 2.271 and the MIC was 5.36 µM (≈ 1.9 µg/mL).

With NC1CCN(c2ccc3c(=O)c(C(=O)O)cn(C4CC4)c3c2)C1 (configuration not stated) the “log(1/C)” value was 3.122 and the MIC was 0.754 µM (≈ 0.236 µg/mL).

For CC1CN(c2ccc3c(=O)c(C(=O)O)cn(C4CC4)c3c2)CC(C)N1 (configuration not stated), the “log(1/C)” value was 3.442 and the MIC was 0.362 µM (≈ 0.124 µg/mL).

For CN1CCN(c2ccc3c(=O)c(C(=O)O)cn(-c4c(F)cccc4F)c3c2)CC1, the “log(1/C)” value was 2.922 and the MIC was 1.2 µM (≈ 0.478 µg/mL).

CCCn1cc(C(=O)O)c(=O)c2ccc(N3CCNCC3)cc21 was tested, and the “log(1/C)” value was 2.203 and the MIC was 6.26 µM (≈ 1.98 µg/mL).

For CCCCN1CCN(c2ccc3c(=O)c(C(=O)O)cn(-c4c(F)cccc4F)c3c2)CC1, the “log(1/C)” value was 2.361 and the MIC was 4.35 µM (≈ 1.92 µg/mL).

In the case of O=C(O)c1cn(-c2c(F)cccc2F)c2cc(N3CCNCC3)ccc2c1=O, the “log(1/C)” value is reported as 2.907 and the MIC is reported as 1.24 µM (≈ 0.478 µg/mL).

With CCC1CN(c2ccc3c(=O)c(C(=O)O)cn(-c4c(F)cccc4F)c3c2)CCN1 (configuration not stated) the “log(1/C)” value was 2.635 and the MIC was 2.32 µM (≈ 0.958 µg/mL).

In the case of CC1CN(c2ccc3c(=O)c(C(=O)O)cn(C(C)(C)C)c3c2)CC(C)N1 (configuration not stated), the “log(1/C)” value is reported as 3.796 and the MIC is reported as 0.16 µM (≈ 0.0572 µg/mL).

CC1CN(c2ccc3c(=O)c(C(=O)O)cn(-c4c(F)cccc4F)c3c2)CC(C)N1 (configuration not stated) was tested, and the “log(1/C)” value was 2.936 and the MIC was 1.16 µM (≈ 0.479 µg/mL).

CC1CN(c2ccc3c(=O)c(C(=O)O)cn(C4CC4)c3c2)CCN1 (configuration not stated) was tested, and the “log(1/C)” value was 3.14 and the MIC was 0.724 µM (≈ 0.237 µg/mL).

For CC(C)(C)n1cc(C(=O)O)c(=O)c2ccc(N3CCNCC3)cc21, the “log(1/C)” value was 3.427 and the MIC was 0.374 µM (≈ 0.123 µg/mL).

For CC1CN(c2ccc3c(=O)c(C(=O)O)cn(C(C)(C)C)c3c2)CCN1 (configuration not stated), the “log(1/C)” value was 3.78 and the MIC was 0.166 µM (≈ 0.057 µg/mL).

For NC1CCN(c2ccc3c(=O)c(C(=O)O)cn(-c4c(F)cccc4F)c3c2)C1 (configuration not stated), the “log(1/C)” value was 3.492 and the MIC was 0.322 µM (≈ 0.124 µg/mL).

For CCCn1cc(C(=O)O)c(=O)c2ccc(N3CCN(CC)CC3)cc21, the “log(1/C)” value was 2.842 and the MIC was 1.44 µM (≈ 0.494 µg/mL).

CC1CN(c2ccc3c(=O)c(C(=O)O)cn(C(C)C)c3c2)CCN1 (configuration not stated) was tested, and the “log(1/C)” value was 2.24 and the MIC was 5.76 µM (≈ 1.9 µg/mL).

With CCCCN1CCN(c2ccc3c(=O)c(C(=O)O)cn(C4CC4)c3c2)CC1 the “log(1/C)” value was 2.889 and the MIC was 1.29 µM (≈ 0.477 µg/mL).

With O=C(O)c1cn(C2CCC2)c2cc(N3CCNCC3)ccc2c1=O the “log(1/C)” value was 2.237 and the MIC was 5.79 µM (≈ 1.9 µg/mL).

CCN1CCN(c2ccc3c(=O)c(C(=O)O)cn(C(C)C)c3c2)CC1 was tested, and the “log(1/C)” value was 1.956 and the MIC was 11.1 µM (≈ 3.8 µg/mL).

With CN(C)CC1CCN(c2ccc3c(=O)c(C(=O)O)cn(C4CC4)c3c2)C1 (configuration not stated) the “log(1/C)” value was 2.873 and the MIC was 1.34 µM (≈ 0.476 µg/mL).

In the case of CC1CN(c2ccc3c(=O)c(C(=O)O)cn(-c4c(F)cccc4F)c3c2)CCN1 (configuration not stated), the “log(1/C)” value is reported as 2.922 and the MIC is reported as 1.2 µM (≈ 0.478 µg/mL).

For CC(C)NCC1CCN(c2ccc3c(=O)c(C(=O)O)cn(C4CC4)c3c2)C1 (configuration not stated), the “log(1/C)” value was 2.889 and the MIC was 1.29 µM (≈ 0.477 µg/mL).

CCN1CCN(c2ccc3c(=O)c(C(=O)O)cn(-c4c(F)cccc4F)c3c2)CC1 was tested, and the “log(1/C)” value was 2.635 and the MIC was 2.32 µM (≈ 0.958 µg/mL).

For CCNCC1CCN(c2ccc3c(=O)c(C(=O)O)cn(-c4c(F)cccc4F)c3c2)C1 (configuration not stated), the “log(1/C)” value was 2.95 and the MIC was 1.12 µM (≈ 0.48 µg/mL).

With NC1CCN(c2ccc3c(=O)c(C(=O)O)cn(C4CCC4)c3c2)C1 (configuration not stated) the “log(1/C)” value was 2.556 and the MIC was 2.78 µM (≈ 0.911 µg/mL).

In the case of CC1CN(c2ccc3c(=O)c(C(=O)O)cn(C(C)C)c3c2)CC(C)N1 (configuration not stated), the “log(1/C)” value is reported as 2.257 and the MIC is reported as 5.53 µM (≈ 1.9 µg/mL).

With CCCn1cc(C(=O)O)c(=O)c2ccc(N3CCNC(C)C3)cc21 (configuration not stated) the “log(1/C)” value was 2.222 and the MIC was 6 µM (≈ 1.98 µg/mL).

CC(C)CN1CCN(c2ccc3c(=O)c(C(=O)O)cn(C4CC4)c3c2)CC1 was tested, and the “log(1/C)” value was 3.19 and the MIC was 0.645 µM (≈ 0.238 µg/mL).

For CC(C)(C)n1cc(C(=O)O)c(=O)c2ccc(N3CCC(N)C3)cc21 (configuration not stated), the “log(1/C)” value was 3.427 and the MIC was 0.374 µM (≈ 0.123 µg/mL).

For CN1CCN(c2ccc3c(=O)c(C(=O)O)cn(C4CC4)c3c2)CC1, the “log(1/C)” value was 3.14 and the MIC was 0.724 µM (≈ 0.237 µg/mL).

CCN1CCN(c2ccc3c(=O)c(C(=O)O)cn(C(C)(C)C)c3c2)CC1 was tested, and the “log(1/C)” value was 3.461 and the MIC was 0.346 µM (≈ 0.124 µg/mL).

With CCCn1cc(C(=O)O)c(=O)c2ccc(N3CCC(CNC)C3)cc21 (configuration not stated) the “log(1/C)” value was 1.638 and the MIC was 23 µM (≈ 7.91 µg/mL).

CNCC1CCN(c2ccc3c(=O)c(C(=O)O)cn(C(C)(C)C)c3c2)C1 (configuration not stated) was tested, and the “log(1/C)” value was 3.177 and the MIC was 0.666 µM (≈ 0.238 µg/mL).

With CC(C)n1cc(C(=O)O)c(=O)c2ccc(N3CCNCC3)cc21 the “log(1/C)” value was 1.921 and the MIC was 12 µM (≈ 3.78 µg/mL).

In the case of CCC1CN(c2ccc3c(=O)c(C(=O)O)cn(C4CC4)c3c2)CCN1 (configuration not stated), the “log(1/C)” value is reported as 3.158 and the MIC is reported as 0.696 µM (≈ 0.238 µg/mL).

CNCC1CCN(c2ccc3c(=O)c(C(=O)O)cn(C4CC4)c3c2)C1 (configuration not stated) was tested, and the “log(1/C)” value was 2.857 and the MIC was 1.39 µM (≈ 0.475 µg/mL).

With CNCC1CCN(c2ccc3c(=O)c(C(=O)O)cn(-c4c(F)cccc4F)c3c2)C1 (configuration not stated) the “log(1/C)” value was 3.237 and the MIC was 0.579 µM (≈ 0.239 µg/mL).

CCCn1cc(C(=O)O)c(=O)c2ccc(N3CC(C)NC(C)C3)cc21 (configuration not stated) was tested, and the “log(1/C)” value was 2.541 and the MIC was 2.88 µM (≈ 0.989 µg/mL).

With CNCC1CCN(c2ccc3c(=O)c(C(=O)O)cn(C4CCC4)c3c2)C1 (configuration not stated) the “log(1/C)” value was 1.97 and the MIC was 10.7 µM (≈ 3.81 µg/mL).

In the case of CC1CN(c2ccc3c(=O)c(C(=O)O)cn(C4CCC4)c3c2)CC(C)N1 (configuration not stated), the “log(1/C)” value is reported as 2.873 and the MIC is reported as 1.34 µM (≈ 0.476 µg/mL).

CC(C)n1cc(C(=O)O)c(=O)c2ccc(N3CCC(N)C3)cc21 (configuration not stated) was tested, and the “log(1/C)” value was 2.222 and the MIC was 6 µM (≈ 1.89 µg/mL).

For CC(C)N1CCN(c2ccc3c(=O)c(C(=O)O)cn(C4CC4)c3c2)CC1, the “log(1/C)” value was 3.174 and the MIC was 0.669 µM (≈ 0.238 µg/mL).

CCNCC1CCN(c2ccc3c(=O)c(C(=O)O)cn(C4CC4)c3c2)C1 (configuration not stated) was tested, and the “log(1/C)” value was 2.873 and the MIC was 1.34 µM (≈ 0.476 µg/mL).
